Results on 15 molecules are retold here after patent US20230061736A1, “GPR119 AGONISTS” (Kallyope, Inc., priority 2019, published 2023).

Each structure is given as a SMILES string. Where two headings read alike, the source gives them in different places.

Series [1] in a line: In vivo plasma levels in mice after oral gavage. Also on record: species or system C57BL/6J mice. Particulars: mouse, 30 mpk oral gavage; for Exposure unbound (plasma): total exposure x free fraction from plasma protein binding. The method, then:
Male C57BL/6J mice 10-12 weeks old were dosed with test article or vehicle [0.25% (w/v) methylcellulose, 5% (v/v) Polysorbate 80, and 0.02% (w/v) sodium lauryl sulfate in Hanks' Balanced Salt solution (all final concentrations)] by oral gavage at a volume of 10 mL/kg. Animals were euthanized with carbon dioxide 7-8 h post dose. Blood was collected for measurement of plasma concentrations of test article. Unbound exposure was calculated by multiplying the measured total exposure by the free fraction as assessed from plasma protein binding.
Plasma protein binding to isotonic phosphate buffer (PBS) containing 10% C57 BL/6 mouse plasma was determined using equilibrium dialysis of plasma spiked with test article (2 μM) against a dialysis buffer (100 mM sodium phosphate and 150 mM NaCl). At the end of the dialysis (4 hr), aliquots of the plasma and buffer were processed by protein precipitation for LC-MS/MS analysis to quantitate the test article.

In another series the target is T1, human GPR119 (hGPR119) (Homo sapiens, UniProt Q8TDV5).
T1 construct: expressed in transfected cells
T1 sequence (Q8TDV5 1-335): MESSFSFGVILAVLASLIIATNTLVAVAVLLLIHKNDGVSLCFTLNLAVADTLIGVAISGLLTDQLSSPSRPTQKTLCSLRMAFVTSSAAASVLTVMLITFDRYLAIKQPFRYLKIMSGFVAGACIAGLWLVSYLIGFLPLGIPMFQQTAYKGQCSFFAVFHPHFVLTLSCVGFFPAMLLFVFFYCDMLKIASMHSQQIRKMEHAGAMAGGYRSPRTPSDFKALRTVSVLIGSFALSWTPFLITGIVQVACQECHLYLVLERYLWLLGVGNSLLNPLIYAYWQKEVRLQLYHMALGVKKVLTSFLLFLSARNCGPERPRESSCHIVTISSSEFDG
The series is described as follows: cAMP accumulation assay (cAMP Gs dynamic HTRF kit). It is filed as cell-based. As to conditions: CHO-K1 cells stably expressing hGPR119, 4-parameter fit; for Emax: 1 h, % activity normalized to Max/Min controls; for EC50: cAMP accumulation. In short, it runs like this:
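Read-out is HTRF 665/620 nm ratio after 1 h detection at ambient temperature, converted to % activity against positive and negative controls, EC50 and Max activity by 4-parameter fit. Compounds were titrated onto ~10,000 thawed hGPR119-CHO-K1 cells/well for 60 min at 37° C/5% CO2.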
(In general: cAMP levels reflect the balance of adenylyl cyclase and phosphodiesterase activity.)

The nature of series [2]: Oral bioavailability in mice. Particulars: mouse, in vivo; C57BL/6 mice; IV 1 mg/kg, PO 30 mg/kg. Here is the method:
Compounds were dosed IV at 1 mg/kg as a formulation of 0.5 mg/mL in 5% DMSO+30% PEG400+65% water and PO at 30 mg/kg as a formulation of 6 mg/mL in 0.25% methylcellulose+5% Tween 80+0.02% SDS in water (Compound 42) or 0.5% methylcellulose+0.5% Tween 80 in water (Compound 83).

Series [3] in a line: In vivo plasma levels in mice after oral gavage. Details: species or system C57BL/6J mice. As to conditions: mouse, 30 mpk oral gavage, 2 h post-dose; for concentration at 2 h: male, C57BL/6J, plasma, 30 mg/kg, read-out: Exposure Total (plasma).
For series [4] the following is noted: in rats; Bioorganic & Medicinal Chemistry Letters 27(5), 2017, 1124-1128 (Compound 17 in the reference); cited from earlier work.
[5] abbreviates: male, C57BL/6J, plasma, 30 mg/kg, 7 h post-dose, read-out: Exposure Total (plasma).

The term Emax denotes the size of the effect at its maximum, as opposed to the concentration needed. The term EC50 denotes the concentration that produces a half-maximal response. Read a low EC50 as greater potency. By bioavailability is commonly meant the share of a dose that reaches the circulation, judged against a reference dose that is usually intravenous.

Consider `O=C(NC[C@H](O)[C@@H](O)[C@H](O)[C@H](O)CO)C1CN(C(=O)Cc2ccc(OCCCC3CCN(c4ncc(Cl)cn4)CC3)cc2F)C1` (racemic) [Example 37, 1-[2-[4-[3-[1-(5-chloropyrimidin-2-yl)-4-piperidyl]propoxy]-2-fluoro-phenyl]acetyl]-N-[rac-(2S,3R,4R,5R)-2,3,4,5,6-pentahydroxyhexyl]azetidine-3-carboxamide], for which the concentration at 7 h in series [1] (setting [5]) came out at 551 nM. Moreover, the “Exposure unbound (plasma)” value in series [1] (7 h post-dose) is 1.1 nM. On human GPR119 (hGPR119), this molecule displayed a maximal response (Emax) of 100 to 130% and an EC50 of 0.1 to 1 µM.
As to `O=C(CC1CN(C(=O)Cc2ccc(OCCCC3CCN(c4ncc(Cl)cn4)CC3)cc2F)C1)NC[C@H](O)[C@@H](O)[C@H](O)[C@H](O)CO` (racemic) [Example 38, 2-[1-[2-[4-[3-[1-(5-chloropyrimidin-2-yl)-4-piperidyl]propoxy]-2-fluoro-phenyl]acetyl]azetidin-3-yl]-N-[rac-(2S,3R,4R,5R)-2,3,4,5,6-pentahydroxyhexyl]acetamide], in series [1] (setting [5]), the concentration at 7 h worked out at 76 nM. For the same molecule, in series [1] (7 h post-dose), the “Exposure unbound (plasma)” value was found to be 0.2 nM. Also, at human GPR119 (hGPR119), the Emax is no less than 130% and the EC50 lay within 0.1 to 1 µM.
For the molecule `COCc1cnc(N2CCC(CCCOc3ccc(CC(=O)N4CC(CNC[C@H](O)[C@@H](O)[C@H](O)[C@H](O)CO)C4)c(F)c3)CC2)nc1` [Example 83, 2-[2-fluoro-4-[3-[1-[5-(methoxymethyl)pyrimidin-2-yl]-4-piperidyl]propoxy]phenyl]-1-[3-[[[(2S,3R,4R,5R)-2,3,4,5,6-pentahydroxyhexyl]amino]methyl]azetidin-1-yl]ethanone], the bioavailability in series [2] came to 1.4%. Besides, at human GPR119 (hGPR119), the Emax lay in the range of 100 to 130% and the EC50 fell in the range of 0.1 to 1 µM.
Consider `O=C(Cc1ccc(OCC[C@@H]2C[C@@H]2C2CCN(c3ncc(Cl)cn3)CC2)cc1F)N1CC(CNC[C@H](O)[C@@H](O)[C@H](O)[C@H](O)CO)C1` [Example 86, 2-[4-[2-[(1S,2R)-2-[1-(5-chloropyrimidin-2-yl)-4-piperidyl]cyclopropyl]ethoxy]-2-fluoro-phenyl]-1-[3-[[[(2S,3R,4R,5R)-2,3,4,5,6-pentahydroxyhexyl]amino]methyl]azetidin-1-yl]ethanone], for which the concentration at 7 h in series [1] (setting [5]) is 67 nM. Further, in series [1] (7 h post-dose), the “Exposure unbound (plasma)” value came to 0.1 nM. Besides, at human GPR119 (hGPR119), the Emax is 100 to 130% and the EC50 lay in the range of 0.1 to 1 µM.
In the same order, the values of `O=C(NC(CO)(CO)CO)C1CN(C(=O)Cc2ccc(OCCCC3CCN(c4ncc(Cl)cn4)CC3)cc2F)C1` [Example 29, 1-[2-[4-[3-[1-(5-chloropyrimidin-2-yl)-4-piperidyl]propoxy]-2-fluoro-phenyl]acetyl]-N-[2-hydroxy-1,1-bis(hydroxymethyl)ethyl]azetidine-3-carboxamide] are 354 nM, 0.7 nM, no less than 130% and no more than 0.1 µM.
For `CC(C)c1noc(N2CCC(COc3ccc(-c4ccc(S(C)(=O)=O)cc4)nc3)CC2)n1` [GSK1292263, 3-isopropyl-5-(4-(((6-(4-(methylsulfonyl)phenyl)pyridin-3-yl)oxy)methyl)piperidin-1-yl)-l,2,4-oxadiazole, reference compound], the concentration at 2 h in series [3] was determined as 7840 nM.
Regarding `O=C(Cc1ccc(OCCCC2CCN(c3ncc(Cl)cn3)CC2)cc1F)N1CC(CNC[C@H](O)[C@@H](O)[C@H](O)[C@H](O)CO)C1` [Example 42, 2-[4-[3-[1-(5-chloropyrimidin-2-yl)-4-piperidyl]propoxy]-2-fluoro-phenyl]-1-[3-[[[(2S,3R,4R,5R)-2,3,4,5,6-pentahydroxyhexyl]amino]methyl]azetidin-1-yl]ethanone], the concentration at 8 h in series [1] (male, C57BL/6J, plasma, 30 mg/kg, 8 h post-dose, read-out: Exposure Total (plasma)) came to 369 nM. Moreover, the “Exposure unbound (plasma)” value in series [1] (8 h post-dose) was determined as 1.1 nM. This molecule also yielded a bioavailability in series [2] of 2.4%. Further, at human GPR119 (hGPR119), the Emax lay within 100 to 130% and the EC50 is 0.1 to 1 µM. In addition, the concentration at 2 h in series [3] came to 806 nM. The “Exposure unbound (plasma)” value in series [3] (total exposure x free fraction from plasma protein binding) is 2.4 nM.
`COc1c(Nc2ccc(S(C)(=O)=O)nc2C)ncnc1OC1CCN(C(=O)OC(C)C)CC1` [APD597, isopropyl 4-((5-methoxy-6-((2-methyl-6-(methylsulfonyl)pyridin-3-yl)amino)pyrimidin-4-yl)oxy)piperidine-1-carboxylate, reference compound]: the concentration at 2 h in series [3] was 16200 nM.
With `COCc1cnc(N2CCC([C@H]3C[C@H]3CCOc3cc(F)c(CC(=O)N4CCC4)c(F)c3)CC2)nc1` [1-(azetidin-1-yl)-2-(2,6-difluoro-4-(2-((1S,2R)-2-(1-(5-(methoxymethyl)pyrimidin-2-yl)piperidin-4-yl)cyclopropyl)ethoxy)phenyl)ethan-1-one], the bioavailability in series [4] was 80%.
With `O=C(Cc1ccc(OCCCC2CCN(c3ncc(Cl)cn3)CC2)cc1F)N1CC(CNC(CO)(CO)CO)C1` [Example 44, 2-[4-[3-[1-(5-chloropyrimidin-2-yl)-4-piperidyl]propoxy]-2-fluoro-phenyl]-1-[3-[[[2-hydroxy-1,1-bis(hydroxymethyl)ethyl]amino]methyl]azetidin-1-yl]ethanone], in series [1] (setting [5]), the concentration at 7 h amounted to 668 nM. In addition, the “Exposure unbound (plasma)” value in series [1] (7 h post-dose) was 0.7 nM. For the same molecule, on human GPR119 (hGPR119), the Emax was no less than 130% and the EC50 was no more than 0.1 µM.
At human GPR119 (hGPR119), `CCCc1cnc(N2CCC(CCCOc3cc(F)c(CC(=O)NC(CO)(CO)CO)c(F)c3)CC2)nc1` [Example 8, 2-[2,6-difluoro-4-[3-[1-(5-propylpyrimidin-2-yl)-4-piperidyl]propoxy]phenyl]-N-[2-hydroxy-1,1-bis(hydroxymethyl)ethyl]acetamide] returned an Emax of 100 to 130% and an EC50 of no more than 0.1 µM.
`CC(C)OC(=O)N1CCC2(CC1)CC2CCCOc1ccc(CC(=O)N2CC(CNC[C@H](O)[C@@H](O)[C@H](O)[C@H](O)CO)C2)c(F)c1` (stereo partly drawn) [Example 145, isopropyl 2-[3-[3-fluoro-4-[2-oxo-2-[3-[[[(2S,3R,4R,5R)-2,3,4,5,6-pentahydroxyhexyl]amino]methyl]azetidin-1-yl]ethyl]phenoxy]propyl]-6-azaspiro[2.5]octane-6-carboxylate]: on human GPR119 (hGPR119), the Emax is 50 to 100% and the EC50 lay in the range of 1 to 10 µM.
In the same order, the values of `O=C(Cc1ccc(OCCCC2CCN(c3ncc(Cl)cn3)CC2)cc1F)N1CC[C@H](CNCC(O)(CO)CO)C1` [Example 101, 2-[4-[3-[1-(5-chloropyrimidin-2-yl)-4-piperidyl]propoxy]-2-fluoro-phenyl]-1-[(3R)-3-[[[2,3-dihydroxy-2-(hydroxymethyl)propyl]amino]methyl]pyrrolidin-1-yl]ethanone] are 100 to 130% and no more than 0.1 µM.
On human GPR119 (hGPR119), `O=C(Cc1ccc(OCCCC2CCN(c3ncc(Cl)cn3)CC2)cc1F)NCCCCCNC[C@H](O)[C@@H](O)[C@H](O)[C@H](O)CO` [Example 3] gave an Emax of no less than 130% and an EC50 of 0.1 to 1 µM.
Take `O=C(NCCCS(=O)(=O)O)C1CN(C(=O)Cc2ccc(OCCCC3CCN(c4ncc(Cl)cn4)CC3)cc2F)C1` [Example 172, 3-[[1-[2-[4-[3-[1-(5-chloropyrimidin-2-yl)-4-piperidyl]propoxy]-2-fluoro-phenyl]acetyl]azetidine-3-carbonyl]amino]propane-1-sulfonic acid]: on human GPR119 (hGPR119), the Emax was in the range of 100 to 130% and the EC50 is no more than 0.1 µM.
